Results taken from ChEMBL document CHEMBL2390942, “Novel 3,5-bis(arylidene)-4-piperidone dimers: potent cytotoxins against colon cancer cells” (Eur J Med Chem, 2013).
pIC50: −log10 of the molar value. Activity calls are given as the source filed them. The calls are words filed in the database; no cut-off is given here.

Experiments:
HT-29 [1] = assay: Ratio of 5-fluorouracil IC50 to compound IC50 for human HT-29 cells after 48 hrs by sulforhodamine B assay; type: functional
HT-29 [2] = assay: Cytotoxicity against human HT-29 cells after 48 hrs by sulforhodamine B assay; type: functional, cell-based; settings: HT-29, 48 h
HCT-116 [3] = assay: Cytotoxicity against human HCT116 cells after 48 hrs by sulforhodamine B assay; type: functional, cell-based; settings: HCT-116, 48 h
HCT-116 [4] = assay: Ratio of 5-fluorouracil IC50 to compound IC50 for human HCT116 cells after 48 hrs by sulforhodamine B assay; type: functional
Mus musculus = assay: Reduction in hepatic glutathione levels in ip dosed mouse relative to control; type: functional; set-up: scale not given: the % may be the effect or the level left
HT-29 [5] = assay: Cell cycle arrest in human HT-29 cells assessed as accumulation at G2/M phase at 1 uM after 48 hrs by propidium iodide staining-based FACS flow cytometric analysis; type: functional
HT-29 [6] = assay: Cell cycle arrest in human HT-29 cells assessed as accumulation at S phase at 1 uM after 48 hrs by propidium iodide staining-based FACS flow cytometric analysis; type: functional
HCT-116 [7] = assay: Cell cycle arrest in human HCT116 cells assessed as accumulation at S phase at 1 uM after 48 hrs by propidium iodide staining-based FACS flow cytometric analysis; type: functional
HCT-116 [8] = assay: Cell cycle arrest in human HCT116 cells assessed as accumulation at G2/M phase at 1 uM after 48 hrs by propidium iodide staining-based FACS flow cytometric analysis; type: functional
HCT-116 [9] = assay: Induction of apoptosis in human HCT116 cells assessed as apoptotic cells at 1 uM after 48 hrs by Annexin V-FITC and propidium iodide staining-based FACS flow cytometric analysis (reference value: 2.59%); type: functional
HCT-116 [10] = assay: Induction of apoptosis in human HCT116 cells assessed as dead cells at 1 uM after 48 hrs by Annexin V-FITC and propidium iodide staining-based FACS flow cytometric analysis (reference value: 49.93%); type: functional
HCT-116 [11] = assay: Induction of apoptosis in human HCT116 cells assessed as live cells at 1 uM after 48 hrs by Annexin V-FITC and propidium iodide staining-based FACS flow cytometric analysis (reference value: 47.40%); type: functional
HCT-116 [12] = assay: Induction of apoptosis in human HCT116 cells assessed as apoptotic cells at 1 uM after 24 hrs by Annexin V-FITC and propidium iodide staining-based FACS flow cytometric analysis (reference value: 2.82%); type: functional
HCT-116 [13] = assay: Induction of apoptosis in human HCT116 cells assessed as dead cells at 1 uM after 24 hrs by Annexin V-FITC and propidium iodide staining-based FACS flow cytometric analysis (reference value: 38.02%); type: functional
HCT-116 [14] = assay: Induction of apoptosis in human HCT116 cells assessed as live cells at 1 uM after 24 hrs by Annexin V-FITC and propidium iodide staining-based FACS flow cytometric analysis (reference value: 59.15%); type: functional

| SMILES | Ratio IC50 (HT-29 [1]) | pIC50 (HT-29 [2]) | pIC50 (HCT-116 [3]) | Ratio IC50 (HCT-116 [4]) | other results |
| --- | --- | --- | --- | --- | --- |
| O=C1/C(=C/c2ccc(F)cc2)CN(C(=O)C(=O)N2C/C(=C\c3ccc(F)cc3)C(=O)/C(=C/c3ccc(F)cc3)C2)C/C1=C\c1ccc(F)cc1 | 212 | 7.52 | 7.70 | 226 | – |
| O=C1/C(=C\c2ccc(Cl)c(Cl)c2)CN(C(=O)CC(=O)N2C/C(=C\c3ccc(Cl)c(Cl)c3)C(=O)/C(=C/c3ccc(Cl)c(Cl)c3)C2)C/C1=C\c1ccc(Cl)c(Cl)c1 | 1.1 | 5.22 | 4.57 | 0.17 | – |
| O=C(O)/C=C/C(=O)N1C/C(=C\c2ccccc2)C(=O)/C(=C/c2ccccc2)C1 | – | – | – | – | Activity (Mus musculus): 29% |
| COc1ccc(/C=C2\CN(C(=O)C(=O)N3C/C(=C\c4ccc(OC)cc4)C(=O)/C(=C/c4ccc(OC)cc4)C3)C/C(=C\c3ccc(OC)cc3)C2=O)cc1 | 37 | 6.77 | 7.70 | 226 | Activity (HT-29 [5]): inactive; Activity (HT-29 [6]): inactive; Activity (HCT-116 [7]): inactive; Activity (HCT-116 [8]): inactive; Activity (HCT-116 [9]): 38.51%; Activity (HCT-116 [10]): 37.82%; Activity (HCT-116 [11]): 24.47%; Activity (HCT-116 [12]): 34.93%; Activity (HCT-116 [13]): 21.63%; Activity (HCT-116 [14]): 44.4% |
| COc1cc(/C=C2/CN(C(=O)CC(=O)N3C/C(=C\c4cc(OC)c(OC)c(OC)c4)C(=O)/C(=C/c4cc(OC)c(OC)c(OC)c4)C3)C/C(=C\c3cc(OC)c(OC)c(OC)c3)C2=O)cc(OC)c1OC | 159 | 7.40 | 7.70 | 226 | – |
| COc1ccc(/C=C2/CN(C(=O)CC(=O)N3C/C(=C\c4ccc(OC)c(OC)c4)C(=O)/C(=C/c4ccc(OC)c(OC)c4)C3)C/C(=C\c3ccc(OC)c(OC)c3)C2=O)cc1OC | 20 | 6.51 | 6.74 | 25 | – |
| O=C1/C(=C\c2ccc(Cl)cc2)CN(C(=O)CC(=O)N2C/C(=C\c3ccc(Cl)cc3)C(=O)/C(=C/c3ccc(Cl)cc3)C2)C/C1=C\c1ccc(Cl)cc1 | 71 | 7.05 | 7.30 | 90 | – |
| COc1cc(/C=C/C(=O)CC(=O)/C=C/c2ccc(O)c(OC)c2)ccc1O [CURCUMIN] | 0.48 | 4.88 | 4.94 | 0.39 | – |
| CN(C)c1ccc(/C=C2\CN(C(=O)C(=O)N3C/C(=C\c4ccc(N(C)C)cc4)C(=O)/C(=C/c4ccc(N(C)C)cc4)C3)C/C(=C\c3ccc(N(C)C)cc3)C2=O)cc1 | 0.34 | 4.73 | 4.56 | 0.17 | – |
| O=C1/C(=C/c2ccccc2)CN(C(=O)C(=O)N2C/C(=C\c3ccccc3)C(=O)/C(=C/c3ccccc3)C2)C/C1=C\c1ccccc1 | 454 | 7.85 | 7.40 | 113 | – |
| O=C1/C(=C\c2ccccc2)CN(C(=O)CC(=O)N2C/C(=C\c3ccccc3)C(=O)/C(=C/c3ccccc3)C2)C/C1=C\c1ccccc1 | 2117 | 8.52 | 7.70 | 226 | – |
| Cc1ccc(/C=C2/CN(C(=O)CC(=O)N3C/C(=C\c4ccc(C)cc4)C(=O)/C(=C/c4ccc(C)cc4)C3)C/C(=C\c3ccc(C)cc3)C2=O)cc1 | 32 | 6.70 | 6.39 | 11 | – |
| COc1cc(/C=C2\CN(C(=O)C(=O)N3C/C(=C\c4cc(OC)c(OC)c(OC)c4)C(=O)/C(=C/c4ccc(OC)c(OC)c4OC)C3)C/C(=C\c3cc(OC)c(OC)c(OC)c3)C2=O)cc(OC)c1OC | 24 | 6.57 | 6.57 | 17 | – |
| O=C1/C(=C\c2ccc(F)cc2)CN(C(=O)CC(=O)N2C/C(=C\c3ccc(F)cc3)C(=O)/C(=C/c3ccc(F)cc3)C2)C/C1=C\c1ccc(F)cc1 | 35 | 6.74 | 6.22 | 8 | – |
| Cc1ccc(/C=C2\CN(C(=O)C(=O)N3C/C(=C\c4ccc(C)cc4)C(=O)/C(=C/c4ccc(C)cc4)C3)C/C(=C\c3ccc(C)cc3)C2=O)cc1 | 49 | 6.89 | 7.05 | 50 | – |
| COc1ccc(/C=C2/CN(C(=O)CC(=O)N3C/C(=C\c4ccc(OC)cc4)C(=O)/C(=C/c4ccc(OC)cc4)C3)C/C(=C\c3ccc(OC)cc3)C2=O)cc1 | 8 | 6.11 | 7.22 | 75 | – |
| O=c1[nH]cc(F)c(=O)[nH]1 [FLUOROURACIL] | 1 | 5.20 | 5.34 | 1 | – |
| O=C1/C(=C/c2ccc(Cl)cc2)CN(C(=O)C(=O)N2C/C(=C\c3ccc(Cl)cc3)C(=O)/C(=C/c3ccc(Cl)cc3)C2)C/C1=C\c1ccc(Cl)cc1 | 8 | 6.11 | 7.52 | 151 | – |
| COc1ccc(/C=C2\CN(C(=O)C(=O)N3C/C(=C\c4ccc(OC)c(OC)c4)C(=O)/C(=C/c4ccc(OC)c(OC)c4)C3)C/C(=C\c3ccc(OC)c(OC)c3)C2=O)cc1OC | 11 | 6.25 | 7.52 | 151 | – |
| O=C1/C(=C\c2ccc(O)cc2)CN(C(=O)CC(=O)N2C/C(=C\c3ccc(O)cc3)C(=O)/C(=C/c3ccc(O)cc3)C2)C/C1=C\c1ccc(O)cc1 | 14 | 6.34 | 6.14 | 6 | – |
| CN(C)c1ccc(/C=C2/CN(C(=O)CC(=O)N3C/C(=C\c4ccc(N(C)C)cc4)C(=O)/C(=C/c4ccc(N(C)C)cc4)C3)C/C(=C\c3ccc(N(C)C)cc3)C2=O)cc1 | <1 | < 4.60 | < 4.60 | <1 | – |
| O=C1/C(=C/c2ccccc2)CNC/C1=C\c1ccccc1 | – | – | – | – | Activity (Mus musculus): 19% |
| O=C1/C(=C\c2ccccc2)CN(CCCN2C/C(=C\c3ccccc3)C(=O)/C(=C/c3ccccc3)C2)C/C1=C\c1ccccc1 | 3 | 5.67 | 6.17 | 7 | – |
